# Where two headings read alike, the source gives them in different places.
# Key:
# [1] = test system: wild oat (Avena fatua L.); assay: Test Example 16: pot test, soil treatment of wild oat, 28th day; assay type: in vivo
# [2] = test system: japanese millet (Echinochloa esculenta (A. Braun) H. Scholz.); assay: Test Example 13: pot test, soil treatment of japanese millet; assay type: in vivo
# [3] = test system: bermudagrass (Cynodon dactylon (L.) Pers.); assay: Test Example 10: pot test, foliar treatment of bermudagrass, 2.2 to 2.5 leaf-stage; assay type: in vivo; details: read-out: Growth inhibition rate (%) of bermudagrass, Measured value
# [4] = test system: velvetleaf (Abutilon theophrasti Medic.); assay: Test Example 8: pot test, soil treatment of velvetleaf; assay type: in vivo; details: 28th day after treatment, read-out: Growth inhibition rate (%) of velvetleaf, Measured value
# [5] = test system: sunn-hemp (Crotalaria juncea L.); assay: Test Example 15: pot test, soil treatment of sunn-hemp; assay type: in vivo; details: 28th day after treatment
# [6] = test system: sunn-hemp (Crotalaria juncea L.); assay: Test Example 7: pot test, soil treatment of sunn-hemp; assay type: in vivo
# [7] = test system: shattercane (Sorghum bicolor (L.) Moench); assay: Test Example 20: pot test, soil treatment of shattercane; assay type: in vivo; details: 14th day after treatment, read-out: Growth inhibition rate (%) of shattercane, Measured value
# [8] = test system: rostrate sesbania (Sesbania rostrata Bremek. & Oberm.); assay: Test Example 6: pot test, soil treatment of rostrate sesbania, 28th day; assay type: in vivo; details: 28th day after treatment
# [9] = test system: common lambsquarters (Chenopodium album L.); assay: Test Example 4: pot test, foliar treatment of common lambsquarters; details: read-out: Growth inhibition rate (%) of lambsquarters, Measured value
# [10] = test system: ivy-leaved morningglory (Ipomoea hederacea Jacq.); assay: Test Example 19: pot test, soil treatment of ivy-leaved morningglory; assay type: in vivo; details: 14th day after treatment, read-out: Growth inhibition rate (%) of ivy-leaved morningglory, Measured value
# [11] = test system: black nightshade (Solanum nigrum L.); assay: Test Example 2: pot test, foliar treatment of black nightshade; assay type: in vivo
# [12] = test system: black nightshade (Solanum nigrum L.); assay: Test Example 9: pot test, soil treatment of black nightshade; assay type: in vivo; details: 28th day after treatment, read-out: Growth inhibition rate (%) of black nightshade, Measured value
# [13] = test system: persian speedwell (Veronica persica Poir.); assay: Test Example 12: pot test, foliar treatment of persian speedwell, 4.0 to 4.3 leaf-stage; assay type: in vivo; details: read-out: Growth inhibition rate (%) of persian speedwell, Measured value
# [14] = test system: sticky chickweed (Cerastium glomeratum Thuill.); assay: Test Example 3: pot test, foliar treatment of sticky chickweed; assay type: in vivo; details: read-out: Growth inhibition rate (%) of sticky chickweed, Measured value
# [15] = test system: rostrate sesbania (Sesbania rostrata Bremek. & Oberm.); assay: Test Example 14: pot test, soil treatment of rostrate sesbania, 14th day; assay type: in vivo; details: 14th day after treatment
# [16] = test system: wild oat (Avena fatua L.); assay: Test Example 17: pot test, soil treatment of wild oat, 14th day; assay type: in vivo; details: 14th day after treatment, read-out: Growth inhibition rate (%) of wild oat, Measured value
# [17] = test system: bermudagrass (Cynodon dactylon (L.) Pers.); assay: Test Example 11: pot test, foliar treatment of bermudagrass, 3.8 to 4.3 leaf-stage; assay type: in vivo; details: read-out: Growth inhibition rate (%) of bermudagrass, Measured value
# [18] = test system: persian speedwell (Veronica persica Poir.); assay: Test Example 1: pot test, foliar treatment of persian speedwell; assay type: in vivo; details: read-out: Growth inhibition rate (%) of persian speedwell, Measured value
# [19] = test system: wild oat (Avena fatua L.); assay: Test Example 5: pot test, soil treatment of wild oat, 13th day; assay type: in vivo; details: soil treatment one day after sowing, 13th day after treatment; for inhibition at 25 g/ha / inhibition at 50 g/ha: Avena fatua, 24 h, read-out: Growth inhibition rate (%) of wild oat, Measured value
# [20] = test system: corn (Zea mays L.); assay: Test Example 18: pot test, soil treatment of corn; assay type: in vivo; details: 14th day after treatment, read-out: Growth inhibition rate (%) of corn, Measured value
# [21] = dose 50 g/ha, 2.2 to 2.5 leaf-stage, 28th day after treatment
# [22] = Crotalaria juncea, soil, read-out: Growth inhibition rate (%) of sunn-hemp, Measured value
molecule,measurement,setting,value
"CC(C)=C1OC(=O)N(c2cc(OC3CCCC3)c(Cl)cc2F)C1=O [Pentoxazone, pentoxazone]",inhibition at 250 g/ha,"[1]; Avena fatua, soil, read-out: Growth inhibition rate (%) of wild oat, Measured value",0%
same,inhibition at 100 g/ha,"[2]; Echinochloa esculenta, soil, read-out: Growth inhibition rate (%) of japanese millet, Measured value",0%
"Cc1nn(-c2cc(NS(C)(=O)=O)c(Cl)cc2Cl)c(=O)n1C(F)F [Sulfentrazone, sulfentrazone]",inhibition at 50 g/ha,[3]; [21],30%
same,inhibition at 25 g/ha,[4]; dose 25 g/ha,20%
same,inhibition at 500 g/ha,"[5]; Crotalaria juncea, dose 500 g/ha, read-out: Growth inhibition rate (%) of sunn-hemp, Measured value",30%
"C#CCN(C)c1c(C#N)cnn1-c1nn2c(c1Cl)CCCC2 [Pyraclonil, pyraclonil]","Growth inhibition rate (%) of wild oat, Measured value","[1]; dose 250 g/ha, soil treatment, 28th day after treatment",40%
same,"Growth inhibition rate (%) of japanese millet, Measured value","[2]; dose 100 g/ha, soil treatment, 14th day after treatment",30%
"COc1cc(OC)nc(NC(=O)NS(=O)(=O)c2ncccc2C(F)(F)F)n1 [Flazasulfuron, 1-(4,6-dimethoxypyrimidin-2-yl)-3-(3-trifluoromethyl-2-pyridylsulfonyl)urea]",inhibition at 50 g/ha,[3]; [21],75%
same,inhibition at 100 g/ha,"[3]; dose 100 g/ha, 2.2 to 2.5 leaf-stage, 28th day after treatment",75%
same,inhibition at 50 g/ha,"[6]; Crotalaria juncea, dose 50 g/ha, soil treatment, 28th day after treatment, read-out: Growth inhibition rate (%) of sunn-hemp, Measured value",55%
same,inhibition at 50 g/ha,[4]; dose 50 g/ha,88%
same,inhibition at 100 g/ha,[4]; dose 100 g/ha,88%
same,inhibition at 12.5 g/ha,[7]; dose 12.5 g/ha,0%
same,inhibition at 12.5 g/ha,"[8]; Sesbania, dose 12.5 g/ha, read-out: Growth inhibition rate (%) of rostrate sesbania, Measured value",25%
same,inhibition at 1.6 g/ha,[9],3%
same,inhibition at 50 g/ha,[10]; dose 50 g/ha,60%
same,inhibition at 50 g/ha,"[11]; Solanum nigrum, dose 50 g/ha, 3.2 to 3.5 leaf-stage, 21st day after treatment, read-out: Growth inhibition rate (%) of black nightshade, Measured value",74%
same,dose required to completely suppress growth of black nightshade,[11]; flazasulfuron alone,≥ 50 g/ha
same,inhibition at 50 g/ha,[12]; dose 50 g/ha,85%
same,inhibition at 25 g/ha,"[13]; dose 25 g/ha, 4.0 to 4.3 leaf-stage, 28th day after treatment",0%
same,inhibition at 12.5 g/ha,"[1]; Avena fatua, dose 12.5 g/ha, soil treatment, 28th day after treatment, read-out: Growth inhibition rate (%) of wild oat, Measured value",20%
same,inhibition at 25 g/ha,"[1]; Avena fatua, dose 25 g/ha, soil treatment, 28th day after treatment, read-out: Growth inhibition rate (%) of wild oat, Measured value",75%
same,inhibition at 6.3 g/ha,"[14]; dose 6.3 g/ha, 3.3 to 4.0 leaf-stage, 21st day after treatment",92%
same,inhibition at 50 g/ha,"[15]; Sesbania, dose 50 g/ha, read-out: Growth inhibition rate (%) of rostrate sesbania, Measured value",50%
same,inhibition at 25 g/ha,"[5]; Crotalaria juncea, dose 25 g/ha, read-out: Growth inhibition rate (%) of sunn-hemp, Measured value",0%
same,inhibition at 25 g/ha,[16]; dose 25 g/ha,30%
same,inhibition at 12.5 g/ha,"[17]; dose 12.5 g/ha, 3.8 to 4.3 leaf-stage, 28th day after treatment",15%
same,inhibition at 50 g/ha,"[2]; Echinochloa esculenta, dose 50 g/ha, soil treatment, 14th day after treatment, read-out: Growth inhibition rate (%) of japanese millet, Measured value",80%
same,inhibition at 25 g/ha,"[18]; dose 25 g/ha, 7 to 8 leaf-stage, 21st day after treatment",10%
same,inhibition at 25 g/ha,[19],40%
same,inhibition at 50 g/ha,[19]; dose 50 g/ha,70%
same,inhibition at 12.5 g/ha,[20]; dose 12.5 g/ha,70%
"CCOC(=O)COc1cc(-n2ncc(C(F)(F)F)c(C)c2=O)c(F)cc1Cl [Flufenpyr-ethyl, flufenpyr-ethyl]","Growth inhibition rate (%) of rostrate sesbania, Measured value",[15]; dose 5 g/ha,0%
same,"Growth inhibition rate (%) of sunn-hemp, Measured value",[5]; dose 50 g/ha,0%
"C#CCN1C(=O)COc2cc(F)c(N3C(=O)C4=C(CCCC4)C3=O)cc21 [Flumioxazin, flumioxazin]",inhibition at 5 g/ha,"[3]; dose 5 g/ha, 2.2 to 2.5 leaf-stage, 28th day after treatment",20%
same,inhibition at 250 g/ha,"[8]; Sesbania, dose 250 g/ha, read-out: Growth inhibition rate (%) of rostrate sesbania, Measured value",70%
same,inhibition at 2.5 g/ha,[12]; dose 2.5 g/ha,0%
same,inhibition at 250 g/ha,"[1]; Avena fatua, dose 250 g/ha, soil treatment, 28th day after treatment, read-out: Growth inhibition rate (%) of wild oat, Measured value",90%
same,inhibition at 200 g/ha,"[15]; Sesbania, dose 200 g/ha, read-out: Growth inhibition rate (%) of rostrate sesbania, Measured value",75%
same,inhibition at 100 g/ha,"[5]; Crotalaria juncea, dose 100 g/ha, read-out: Growth inhibition rate (%) of sunn-hemp, Measured value",0%
same,inhibition at 500 g/ha,[16]; dose 500 g/ha,75%
"C=CCOC(=O)C(C)(C)OC(=O)c1cc(-n2c(=O)cc(C(F)(F)F)n(C)c2=O)ccc1Cl [Butafenacil, butafenacil]",inhibition at 10 g/ha,[10]; dose 10 g/ha,0%
same,inhibition at 100 g/ha,[20]; dose 100 g/ha,20%
"CCOC(=O)C(Cl)Cc1cc(-n2nc(C)n(C(F)F)c2=O)c(F)cc1Cl (stereo not drawn) [Carfentrazone-ethyl, carfentrazone-ethyl]",inhibition at 20 g/ha,[3],0%
same,inhibition at 50 g/ha,[3],0%
same,inhibition at 27.4 g/ha,[9],92%
same,inhibition at 25 g/ha,[13],65%
"CCOC(=O)COc1cc(-c2nn(C)c(OC(F)F)c2Cl)c(F)cc1Cl [Pyraflufen-ethyl, pyraflufen-ethyl]",inhibition at 10 g/ha,[6]; [22],20%
same,inhibition at 50 g/ha,[6]; [22],45%
same,inhibition at 2.5 g/ha,"[11]; Solanum nigrum, read-out: Growth inhibition rate (%) of black nightshade, Measured value",88%
same,inhibition at 80 g/ha,[13],80%
same,inhibition at 10 g/ha,[14],58%
same,inhibition at 40 g/ha,[17],0%
same,inhibition at 10 g/ha,[18],43%
"COC(=O)CSc1cc(/N=c2\sc(=O)n3n2CCCC3)c(F)cc1Cl [Fluthiacet-methyl, fluthiacet-methyl]",inhibition at 5 g/ha,"[15]; Sesbania, dose 5 g/ha, read-out: Growth inhibition rate (%) of rostrate sesbania, Measured value",0%
same,inhibition at 50 g/ha,"[5]; Crotalaria juncea, dose 50 g/ha, read-out: Growth inhibition rate (%) of sunn-hemp, Measured value",0%
oxadiargyl,"Growth inhibition rate (%) of sunn-hemp, Measured value","[6]; dose 400 g/ha, soil treatment, 28th day after treatment",40%
same,"Growth inhibition rate (%) of rostrate sesbania, Measured value",[8]; dose 400 g/ha,20%
same,"Growth inhibition rate (%) of wild oat, Measured value",[19]; dose 50 g/ha,5%
same,"Growth inhibition rate (%) of wild oat, Measured value",[19]; dose 800 g/ha,20%
"CC(C)N(C)S(=O)(=O)NC(=O)c1cc(-n2c(=O)cc(C(F)(F)F)n(C)c2=O)c(F)cc1Cl [Saflufenacil, saflufenacil]",inhibition at 5 g/ha,[4]; dose 5 g/ha,0%
same,inhibition at 10 g/ha,[4]; dose 10 g/ha,65%
same,inhibition at 100 g/ha,[7]; dose 100 g/ha,20%
same,inhibition at 50 g/ha,"[1]; Avena fatua, dose 50 g/ha, soil treatment, 28th day after treatment, read-out: Growth inhibition rate (%) of wild oat, Measured value",0%
same,inhibition at 25 g/ha,[19],15%
same,inhibition at 50 g/ha,[19]; dose 50 g/ha,5%
